Tested on: A549
Assay: Antiproliferative activity against human A549 cells assessed as growth inhibition at 10 uM
Assay type: functional
Settings: read-out: GI

CN1C(=O)CNC(=O)[C@H](NC(=O)c2nc3ccccc3cc2O)CSSC[C@H]1C(=O)O
inhibition of growth at 10 µM: < 30%

— ChEMBL document CHEMBL3632499, “Synthesis and Antiproliferative Activity Evaluation of the Disulfide-Containing Cyclic Peptide Thiochondrilline C and Derivatives” (J Nat Prod, 2015)
